Measured values published in EP1025114B1, “3'-N-MODIFIED 6-O-SUBSTITUTED ERYTHROMYCIN KETOLIDE DERIVATIVES HAVING ANTIBACTERIAL ACTIVITY” (priority 1997, dated 1999).
Values after ≈ are worked out from the molar mass of the structure shown.

Legend:
Test in all cases: In vitro antibacterial activity, agar dilution MIC
Assay type in all cases: cell-based
Candida albicans CCH 442 = Candida albicans CCH 442 (organism code TT); BHI agar, 35-37 °C, 20 to 24 hours; unit assumed
Procedure: (§1) Representative compounds of the present invention were assayed in vitro for antibacterial activity as follows: Twelve petri dishes containing successive aqueous dilutions of the test compound mixed with 10 mL of sterilized Brain Heart infusion (BHI) agar (Difco 0418-01-5) were prepared. Each plate was inoculated with 1:100 (or 1:10 for slow-growing strains, such as Micrococcus and Streptococcus) dilutions of up to 32 different microorganisms, using a Steers replicator block. […] In addition, a control plate, using BHI agar containing no test compound, was prepared and incubated at the beginning and end of each test.
(§2) An additional plate containing a compound having known susceptibility patterns for the organisms being tested and belonging to the same antibiotic class as the test compound was also prepared and incubated as a further control, as well as to provide test-to-test comparability.
(§3) After incubation, each plate was visually inspected. The minimum inhibitory concentration (MIC) was defined as the lowest concentration of drug yielding no growth, a slight haze, or sparsely isolated colonies on the inoculum spot as compared to the growth control.

[1] = system: Enterococcus faecium ATCC 8043; conditions: Enterococcus faecium ATCC 8043 (organism code II); BHI agar, 35-37 °C, 20 to 24 hours; unit assumed
Procedure: as §1, §2, §3

Escherichia coli DC-2 = Escherichia coli DC-2 (organism code SS); BHI agar, 35-37 °C, 20 to 24 hours; unit assumed
Procedure: as §1, §2, §3

Escherichia coli JUHL = Escherichia coli JUHL (organism code QQ); BHI agar, 35-37 °C, 20 to 24 hours; unit assumed
Procedure: as §1, §2, §3

Escherichia coli SS = Escherichia coli SS (organism code RR); BHI agar, 35-37 °C, 20 to 24 hours; unit assumed
Procedure: as §1, §2, §3

[2] = system: Haemophilis Influenzae DILL AMP R; conditions: Haemophilis Influenzae DILL AMP R (organism code WW); BHI agar, 35-37 °C, 20 to 24 hours; unit assumed
Procedure: as §1, §2, §3

[3] = system: Micrococcus luteus ATCC 4698; conditions: Micrococcus luteus ATCC 4698 (organism code PP); BHI agar, 35-37 °C, 20 to 24 hours; unit assumed
Procedure: as §1, §2, §3

[4] = system: Micrococcus luteus ATCC 9341; conditions: Micrococcus luteus ATCC 9341 (organism code OO); BHI agar, 35-37 °C, 20 to 24 hours; unit assumed
Procedure: as §1, §2, §3

[5] = system: Mycobacterium smegmatis ATCC 114; conditions: Mycobacterium smegmatis ATCC 114 (organism code UU); BHI agar, 35-37 °C, 20 to 24 hours; unit assumed
Procedure: as §1, §2, §3

[6] = system: Nocardia Asteroides ATCC9970; conditions: Nocardia Asteroides ATCC9970 (organism code VV); BHI agar, 35-37 °C, 20 to 24 hours; unit assumed
Procedure: as §1, §2, §3

[7] = system: Staphylococcus aureus 1775; conditions: Staphylococcus aureus 1775 (organism code GG); BHI agar, 35-37 °C, 20 to 24 hours; unit assumed
Procedure: as §1, §2, §3

[8] = system: Staphylococcus aureus A-5278; conditions: Staphylococcus aureus A-5278 (organism code CC); BHI agar, 35-37 °C, 20 to 24 hours; unit assumed
Procedure: as §1, §2, §3

[9] = system: Staphylococcus aureus A5177; conditions: Staphylococcus aureus A5177 (organism code BB); BHI agar, 35-37 °C, 20 to 24 hours; unit assumed
Procedure: as §1, §2, §3

[10] = system: Staphylococcus aureus ATCC 6538P; conditions: Staphylococcus aureus ATCC 6538P (organism code AA); BHI agar, 35-37 °C, 20 to 24 hours; unit assumed
Procedure: as §1, §2, §3

[11] = system: Staphylococcus aureus CMX 553; conditions: Staphylococcus aureus CMX 553 (organism code FF); BHI agar, 35-37 °C, 20 to 24 hours; unit assumed
Procedure: as §1, §2, §3

[12] = system: Staphylococcus aureus CMX 642A; conditions: Staphylococcus aureus CMX 642A (organism code DD); BHI agar, 35-37 °C, 20 to 24 hours; unit assumed
Procedure: as §1, §2, §3

[13] = system: Staphylococcus aureus NCTC10649M; conditions: Staphylococcus aureus NCTC10649M (organism code EE); BHI agar, 35-37 °C, 20 to 24 hours; unit assumed
Procedure: as §1, §2, §3

[14] = system: Staphylococcus epidermidis 3519; conditions: Staphylococcus epidermidis 3519 (organism code HH); BHI agar, 35-37 °C, 20 to 24 hours; unit assumed
Procedure: as §1, §2, §3

[15] = system: Streptococcus Pheumoniae 5649; conditions: Streptococcus Pheumoniae 5649 (organism code ZZA); BHI agar, 35-37 °C, 20 to 24 hours; unit assumed
Procedure: as §1, §2, §3

[16] = system: Streptococcus Pheumoniae 5979; conditions: Streptococcus Pheumoniae 5979 (organism code ZZ); BHI agar, 35-37 °C, 20 to 24 hours; unit assumed
Procedure: as §1, §2, §3

[17] = system: Streptococcus Pheumoniae ATCC6303; conditions: Streptococcus Pheumoniae ATCC6303 (organism code XX); BHI agar, 35-37 °C, 20 to 24 hours; unit assumed
Procedure: as §1, §2, §3

[18] = system: Streptococcus Pheumoniae GYR 1171; conditions: Streptococcus Pheumoniae GYR 1171 (organism code YY); BHI agar, 35-37 °C, 20 to 24 hours; unit assumed
Procedure: as §1, §2, §3

[19] = system: Streptococcus agalactiae CMX 508; conditions: Streptococcus agalactiae CMX 508 (organism code KK); BHI agar, 35-37 °C, 20 to 24 hours; unit assumed
Procedure: as §1, §2, §3

[20] = system: Streptococcus bovis A-5169; conditions: Streptococcus bovis A-5169 (organism code JJ); BHI agar, 35-37 °C, 20 to 24 hours; unit assumed
Procedure: as §1, §2, §3

[21] = system: Streptococcus pyogenes 930; conditions: Streptococcus pyogenes 930 (organism code MM); BHI agar, 35-37 °C, 20 to 24 hours; unit assumed
Procedure: as §1, §2, §3

[22] = system: Streptococcus pyogenes EES61; conditions: Streptococcus pyogenes EES61 (organism code LL); BHI agar, 35-37 °C, 20 to 24 hours; unit assumed
Procedure: as §1, §2, §3

[23] = system: Streptococcus pyogenes PIU 2548; conditions: Streptococcus pyogenes PIU 2548 (organism code NN); BHI agar, 35-37 °C, 20 to 24 hours; unit assumed
Procedure: as §1, §2, §3

SMILES | MIC (Candida albicans CCH 442) [µg/mL] | MIC [1] [µg/mL] | MIC (Escherichia coli DC-2) [µg/mL] | MIC (Escherichia coli JUHL) [µg/mL] | MIC (Escherichia coli SS) [µg/mL] | MIC [2] [µg/mL] | MIC [3] [µg/mL] | MIC [4] [µg/mL] | MIC [5] [µg/mL] | MIC [6] [µg/mL] | MIC [7] [µg/mL] | MIC [8] [µg/mL] | MIC [9] [µg/mL] | MIC [10] [µg/mL] | MIC [11] [µg/mL] | MIC [12] [µg/mL] | MIC [13] [µg/mL] | MIC [14] [µg/mL] | MIC [15] [µg/mL] | MIC [16] [µg/mL] | also measured
CC[C@H]1OC(=O)[C@H](C)C(=O)[C@H](C)[C@@H](O[C@@H]2O[C@H](C)C[C@H](N(C)Cc3ccccc3)[C@H]2O)[C@](C)(OCC=Cc2cnc3ccccc3c2)C[C@@H](C)C(=O)[C@H](C)[C@H]2NC(=O)O[C@@]21C [Example 8] | > 100 | 0.1 (≈ 0.119 µM) | > 100 | > 100 | 0.78 (≈ 0.926 µM) | 4 (≈ 4.75 µM) | 0.05 (≈ 0.0594 µM) | 0.05 (≈ 0.0594 µM) | 0.39 (≈ 0.463 µM) | 0.2 (≈ 0.238 µM) | > 100 | > 100 | 0.2 (≈ 0.238 µM) | 0.2 (≈ 0.238 µM) | 0.2 (≈ 0.238 µM) | 0.2 (≈ 0.238 µM) | 0.2 (≈ 0.238 µM) | 0.2 (≈ 0.238 µM) | 0.5 (≈ 0.594 µM) | > 128 | MIC [17]: 0.03 µg/mL (≈ 0.0356 µM); MIC [18]: 0.03 µg/mL (≈ 0.0356 µM); MIC [19]: 0.02 µg/mL (≈ 0.0238 µM); MIC [20]: 0.02 µg/mL (≈ 0.0238 µM); MIC [21]: > 100 µg/mL; MIC [22]: 0.02 µg/mL (≈ 0.0238 µM); MIC [23]: 0.2 µg/mL (≈ 0.238 µM)
CC[C@H]1OC(=O)[C@H](C)C(=O)[C@H](C)[C@@H](O[C@@H]2O[C@H](C)C[C@H](N(C)CC=Cc3ccccc3)[C@H]2O)[C@](C)(OCC=Cc2cnc3ccccc3c2)C[C@@H](C)C(=O)[C@H](C)[C@H]2NC(=O)O[C@@]21C [Example 17, Compound of Formula (II); R is -CH2CH=CH-(3-quinolyl), R^p is H, W is absent, R^w is H, R^1 is CH2CH=CHC6H5, R^2 is CH3] | > 100 | 0.1 | > 100 | > 100 | 1.56 | 8 | 0.39 | 0.05 | 0.39 | 0.2 | > 100 | > 100 | 0.39 | 0.39 | 0.39 | 0.39 | 0.78 | 0.39 | 0.25 | 16 | MIC [17]: ≤ 0.015 µg/mL; MIC [18]: ≤ 0.015 µg/mL; MIC [19]: 0.05 µg/mL; MIC [20]: 0.05 µg/mL; MIC [21]: 12.5 µg/mL; MIC [22]: 0.2 µg/mL; MIC [23]: 0.39 µg/mL
CC[C@H]1OC(=O)[C@H](C)C(=O)[C@H](C)[C@@H](O[C@@H]2O[C@H](C)C[C@H](N(C)CC#N)[C@H]2O)[C@](C)(OCC=Cc2cnc3ccccc3c2)C[C@@H](C)C(=O)[C@H](C)[C@H]2NC(=O)O[C@@]21C [Example 9, Compound of Formula (II); R is -CH2CH=CH-(3-quinolyl), R^p is H, W is absent, R^w is H, R^1 is CH2-CN, R^2 is CH3-] | > 100 | 0.1 | > 100 | > 100 | 0.2 | 8 | 0.2 | 0.02 | 12.5 | 0.78 | > 100 | > 100 | 0.1 | 0.1 | 0.05 | 0.1 | 0.1 | 0.2 | 0.5 | 128 | MIC [17]: 0.03 µg/mL; MIC [18]: 0.03 µg/mL; MIC [19]: 0.01 µg/mL; MIC [20]: 0.01 µg/mL; MIC [21]: 12.5 µg/mL; MIC [22]: 0.01 µg/mL; MIC [23]: 0.39 µg/mL
